Read-outs that look alike come from different tables or passages of the source.
Assay: Solubilization of sparingly soluble compounds using quaternary ammonium cationic surfactants (dissolved concentration by HPLC)
Type: physicochemical
Protocol: Aqueous solubility of dexamethsone, a corticosteroid, and natamycin, an antifungal agent, was increased by using quaternary ammonium cationic surfactants cetyltrimethylammonium bromide (CTAB), ditetradecyldimethylammonium bromide (TMAB), and dioctadecyldimethylammonium chloride (OMAC). Stock solutions of surfactants were prepared by adding water to the surfactant and mixing under low shear at room temperature. The stock solution of CTAB and TMAB was prepared at 10 mg/mL and 20 mg/mL in WFI (water for injection) whereas the stock solution of OMAC was only prepared at 10 mg/mL due to gel formation at 20 mg/mL. Surfactant solutions with different concentrations were then prepared by diluting the corresponding stock solution with WFI.
Dexamethasone (or natamycin) was added to each surfactant solution in such quantity to precipitate. The mixture was sonicated for one hour in a sonication water tank and then stirred overnight.
Dissolved dexamethasone (or natamycin) concentration was analyzed on HPLC following two different procedures: (1) An aliquot of the mixture was centrifuged at 10 k RPM (9.3 k×g relative gravitational force) for 30 min. Clear supernatant was then analyzed on HPLC; (2) An aliquot of the mixture was filtered through a syringe filter (Acrodisc®, Supor membrane, 0.2 micrometers), and then analyzed on HPLC. […]

Compound	Aqueous solubility (in aqueous solutions of quaternary ammonium cationic surfactants CTAB, TMAB and OMAC in WFI, sonicated one hour, stirred overnight, HPLC after centrifugation or 0.2 micrometer filtration)	Aqueous solubility
C[C@@H]1C[C@H]2[C@@H]3CCC4=CC(=O)C=C[C@]4(C)[C@@]3(F)[C@@H](O)C[C@]2(C)[C@@]1(O)C(=O)CO [dexamethsone, dexamethasone]	increased	–
C[C@@H]1C/C=C/C=C/C=C/C=C/[C@H](O[C@@H]2O[C@H](C)[C@@H](O)[C@H](N)[C@@H]2O)C[C@@H]2O[C@](O)(C[C@@H](O)C[C@H]3O[C@@H]3/C=C/C(=O)O1)C[C@H](O)[C@H]2C(=O)O [natamycin]	–	increased

— patent US20120225834A1, “OCULAR IONTOPHORESIS OF CHARGED MICELLES CONTAINING BIOACTIVE AGENTS” (EYEGATE PHARMACEUTICALS, INC., priority 2009, published 2012)
